Data reported in patent publication US20060121083A1 (priority 2003, published 2006).
Values after ≈ are worked out from the molar mass of the structure shown. Where two headings read alike, the source gives them in different places. Ends that are not written are not given here.

Key:
[1] = test system: methicillin-resistant S. aureus (MRSA); format: in vivo; details: rats, MRSA challenge
Source text: (§1) Animals: Adult male Wistar rats, 250-300 gr (I.N.R.C.A. I.R.R.C.S. animal facility, Ancona) were used, with 15 animals per experimental group.
(§2) Mammalian graft infection model: Rats were anesthetized and their hair of the back was shaved and the skin cleansed with 10 percent povidone-iodine solution. One subcutaneous pocket was made on each side of the median line by a 1.5 cm incision. Aseptically, 1 square centimeter sterile albumin-sealed Dacron™ grafts (Albograft™, Sorin Biomedica Cardio, S.p.A., Saluggia VC, Italy) were implanted into the pockets. Prior to implantation grafts were soaked for 20 minutes in sterile antibiotic solutions. The pockets were closed by means of skin clips and saline solution (1 mL) containing methicillin-resistant S. aureus (MRSA) or S. epidermidis (MRSE) at a concentration of 2×10^7 colony-forming units (CFU)/mL was inoculated onto the graft surface by using a tuberculin syringe to create a subcutaneous fluid-filled pocket. The animals were returned to individual cages and thoroughly examined daily. All grafts were explanted at 7 days following implantation.
(§3) Assessment of the infection: The explanted grafts were placed in sterile tubes, washed in sterile saline solution, placed in tubes containing 10 mL of phosphate-buffered saline solution and sonicated for 5 minutes to remove the adherent bacteria from the grafts (Balaban, N. et al, 2003. Kidney Int. 63: 340-345). Quantitation of viable staphylococci was performed by culturing serial dilutions (0.1 mL) of the bacterial suspensions on blood agar plates at 37 degrees centigrade for 48 hours. The organisms were quantitated by counting the number of colony-forming units (CFUs) per plate. The limit of detection for this method was approximately 10 CFU/mL.
(§4) Statistical analysis: MIC values are presented as the geometric mean of three separate experiments. […] Significance was accepted when the P value was less than/equal to 0.05.

[2] = test system: methicillin-resistant S. epidermidis (MRSE); format: in vivo; details: rats, MRSE challenge
Source text: as §1, §2, §3, §4

[3] = test system: Methicillin-resistant S. epidermidis clinical strain; assay: MIC by microbroth dilution method, MRSE; format: cell-based; details: broth-micro dilution
Method: (§5) Bacterial strains: Methicillin-resistant S. aureus (abbreviated […]) ATCC 43300 was commercially purchased from Oxoid S.p.A., Milan, Italy. Methicillin-resistant S. epidermidis (abbreviated MRSE) is a clinical strain from the Institute of Infectious Diseases and Public Health, University of Ancona, Italy.
(§6) Bacterial strain antibiotic suscepdbilty analysis: The antimicrobial susceptibilities of the bacterial strains were determined by using the microbroth dilution method, according to the procedures outlined by the National Committee for Clinical Laboratory Standards (U.S.A.). The minimal inhibitory concentration (MIC) was taken as the lowest antibiotic concentration at which observable growth was inhibited. Experiments were performed in triplicate.
as §4

[4] = test system: Methicillin-resistant S. aureus ATCC 43300; assay: MIC by microbroth dilution method, MRSA; format: cell-based; details: broth-micro dilution
Method: as §5, §6, §4

RNAIII synthesis = RNAIII synthesis (beta-lactamase reporter, nitrocefin); format: cell-based, S. aureus; details: FIG. 5b; at high peptide concentrations mostly attributable to cell death
Method: (§7) RNAIII synthesis and bacterial growth: Cultures of S. aureus (20 million cells in a volume of 30 microliters) containing an expression construct for expression of the fusion protein maiii::blaZ (described in Gov, Y. et al., 2001. Peptides. 22: 1609-20 were grown for 2.5 hours with 5 microliters peptide solution or control buffer. A 5 microliter sample was taken from the cultures, diluted in saline, and streaked on LB agar plates to quantitate CFUs. The remainder of the cultures were used to determine RNAIII synthesis (beta-lactamase activity). This was performed by adding a substrate of beta-lactamase (nitrocefin), and determining OD 490 nm/OD 650 nm, as previously described (Gov, Y. et al., 2001. Peptides. 22: 1609-20).

S. aureus cells = assay: Bacterial growth (CFU) of S. aureus culture grown with peptides; format: cell-based; details: in-vitro culture grown 2.5 hours with peptide, FIG. 5a
Method: as §7

[5] = graft pre-soaked with 5 micrograms/mL rifampin alone
[6] = graft pre-soaked with 5 micrograms/mL rifampin alone, 7 days
[7] = graft presoaked in 10 micrograms/mL peptide, explanted at 7 days
[8] = graft presoaked in 20 micrograms/mL peptide, explanted at 7 days
[9] = graft presoaked in 50 micrograms/mL peptide, explanted at 7 days

| Compound | Reduction in bacterial CFU compared to control [1, 5] | Graft bacterial load (quantitative culture) [1, 6] | Reduction in numbers of PFUs compared to control [2, 5] | Graft bacterial load (quantitative culture) [2, 6] | MIC ([3]; Staphylococcus epidermidis, read-out: MIC) [mg/L] | MIC ([4]; Staphylococcus aureus, read-out: MIC) [mg/L] | Graft bacterial load (quantitative culture) [1, 7] | Graft bacterial load (quantitative culture) [1, 8] | Graft bacterial load (quantitative culture) [1, 9] | Graft bacterial load (quantitative culture) [2, 7] | Graft bacterial load (quantitative culture) [2, 8] | Graft bacterial load (quantitative culture) [2, 9] | Inhibition of RNAIII synthesis (RNAIII synthesis) | MIC [3] [micrograms/mL] | Bactericidal activity (CFU counts) (S. aureus cells) | MIC [4] [micrograms/mL] |
| --- | --- | --- | --- | --- | --- | --- | --- | --- | --- | --- | --- | --- | --- | --- | --- | --- |
| CO[C@H]1/C=C/O[C@@]2(C)Oc3c(C)c(O)c4c(O)c(c(/C=N/N5CCN(C)CC5)c(O)c4c3C2=O)NC(=O)/C(C)=C\C=C\[C@H](C)[C@H](O)[C@@H](C)[C@@H](O)[C@@H](C)[C@H](OC(C)=O)[C@@H]1C [rifampin] | about 50% | 6.7×10^3±9.1×10^2 CFU/mL | about 50% | 8.8×10^2±3.0×10^2 CFU/mL | 0.5 (≈ 0.608 µM) | 0.5 (≈ 0.608 µM) |  |  |  |  |  |  |  |  |  |  |
| YSPWTNF (YSPWTNF-NH2) [RIP] |  |  |  |  |  |  | 4.1×10^4±7.1×10^3 CFU/ml | 5.9×10^3±1.7×10^3 CFU/ml | 8.4×10^1±3.6×10^1 CFU/ml | 6.9×10^3±1.9×10^3 CFU/ml | 8.5×10^2±2.0×10^2 CFU/ml | 3.9×10^1±1.6×10^1 CFU/ml | efficiently inhibited RNAIII synthesis | > 128 | virtually inactive | > 128 |
